{"source": "patent US20260007652A1", "about": "“Selective Modulators of AhR-Regulated Transcription and Method for Using Such Modulators to Treat Cancer” (OREGON STATE UNIVERSITY, priority 2022, published 2026)", "key": {"[1]": {"system": "MDA-MB-468 cells", "assay": "Cell-Titer Glo viability assay, MDA-MB-468 AhR WT and AhR KO cells", "assay_type": "cell-based, human", "protocol": "(§1) Viability assays were performed by seeding cells at a density of 2000 cells per well in 96-well plates, and the following day, treating with compounds for 48 or 72 hours as indicated. Viability was determined by ATP-based Cell-Titer Glo Viability Assay (Promega, Madison WI). Luminescence was measured using the Tropix TR717 microplate luminometer. Viability of treated cells was determined by relativizing to vehicle (0.1-0.3% DMSO) treated wells. For profiling the activity of Analog 523 against the panel of triple-negative breast cancer cell lines, 72-hour treatments are represented.\nAnalogs of 11-Cl-BBQ were synthesized by Praxis Precision Medicines. Screening was performed using MDA-MB-468 AhR WT and AhR KO cells previously described. Cells were seeded in 10% serum or 2% serum containing media with 1% Pen/Strep at a density of 2000 cell/well in 96-well plates. 20 hours post-seeding, cells were treated with 0.1 μM, 1 μM, or 10 μM of each analog (final DMSO concentration 0.1%-0.2%). After 48 and 72 hours, cells were harvested. The ATP-Based CellTiter Glo Assay kit (Promega, Madison, WI) was used for measuring cell viability."}, "[2]": {"system": "SKBR-3 HER2+ breast cancer cells", "assay": "Cell viability assay, SKBR-3 HER2+ breast cancer cells", "assay_type": "cell-based, human", "conditions": "72 hours", "protocol": "as §1"}, "[3]": {"system": "HCC70 cells", "assay": "Cell viability assay, HCC70 TNBC cells", "assay_type": "cell-based, human", "protocol": "as §1"}, "[4]": {"conditions": "rats; cited from earlier work"}, "[5]": {"system": "MDA-MB-468 cells", "assay": "Transcriptional profiling by RNA-Seq, MDA-MB-468 AhR WT cells", "assay_type": "cell-based, human", "conditions": "250 nM", "protocol": "MDA-MB-468 AhR WT and AhR KO cells were seeded in 10 cm plates (3.5 million cells/plate) and allowed to attach overnight. The following day, media was replaced with fresh media containing 250 nM of Analog 523 or Vehicle (0.1% DMSO). Treatments were performed in triplicate. At 4 hours and 12 hours post-treatment, samples were harvested by addition of 700 μL of TRK-Lysis buffer and RNA isolation then performed according to the manufacturer's instructions (E.Z.N.A. Total RNA Kit, Omega Bio-Tek, Norcross, GA). Samples were quantified and 260/280 and 260/230 values inspected by NanoDrop. Samples were then sent for quality control, library preparation (poly-A enrichment) and sequencing at Novogene. Sequencing was performed with 150 bp paired-end reads to a depth of 20 million reads […]."}, "[6]": {"system": "HCC1187 cells", "assay": "Cell viability assay, HCC1187 TNBC cells", "assay_type": "cell-based, human", "protocol": "as §1"}, "[7]": {"system": "AhR", "assay": "Xenobiotic response element (XRE) driven reporter in Hepa-1 cells, AhR activation", "assay_type": "cell-based, mouse", "conditions": "16 hours", "protocol": "FIGS. 69A-69D show representative 11-Cl-BBQ analogs (848 and 849) as non-classical AHR ligands. (A) Stability of AHR protein in the H460 whole cell lysate in the presence or absence of 11-Cl-BBQ (5 μM), PRXS-848 (10 μM), and PRXS-849 (10 μM) at the indicated temperatures; GADPH was used as a loading control. (B) Localization of AHR protein in the H460 treated with 11-Cl-BBQ (100 nM), PRXS-848 (250 nM), PRXS-849 (250 nM), or vehicle control (0.1% DMSO) for two hours; top horizontal panel: AHR protein staining using an AHR-specific antibody conjugated with FITC (green) fluorophore; middle panel: DAPI staining; bottle panel: overlaid images from the top panel and the middle panel in the same column. (C) AHR activation (measured by XRE-luciferase reporter assay in Hepa1 cells) of the parental lead 11-Cl-BBQ and analogs PRXS-848 and PRXS-849 at the indicated concentrations for 16 hours. (D) AHR activation of 11-Cl-BBQ cotreated with a known AHR antagonist CH223191 (1 μM) or 11-Cl-BBQ analogs PRXS-848 and PRXS-849 at the indicated concentrations for 16 hours.\nFIG. 76 presents representative AhR compounds (BBQ analogs) of the invention effective for activation of AhR transcription. Activation values greater than 1 at 100 nM were considered a hit with nanomolar affinity to promote AhR activity and synergize with the identified compounds from the synergy screens. Referring to FIG. 76, Fold@ 1 nM refers to activation of AhR transcription at 1 nM; Fold@100 nM refers to activation of AbR transcription at 100 nM; and Fold rel @ 100 refers to relative activation at 100 nM compared to parental compound, 11-Cl-BBQ. The representative AhR ligand compounds presented in FIG. 76 activate AhR transcription and therefore are useful as anti-cancer agents, either alone or in combination with the synergizing compounds (and chemotherapeutic agents) described herein.\nwas identified as a top hit compound based on its potent (>50% inhibition at 0.1 μM), and selective activity against AhR WT cells versus AhR KO cells (>70% difference between WT and KO cells at 10 μM) (FIG. 11). […] This confirmed Analog 523 activates AhR-mediated transcription and functions as an AhR ligand."}, "[8]": {"system": "primary human mammary epithelial cells (HMECs) and MCF10A", "assay": "Cell viability, primary human mammary epithelial cells (HMECs) and MCF10A", "assay_type": "cell-based", "conditions": "72-hour exposure", "protocol": "as §1\nAll cell lines, except for the ST1 and ST2 cells were purchased from ATCC, and maintained in 5% CO2, at 37° C., in DMEM or RPMI media containing 10% FBS, and 1% penicillin/streptomycin. All HCC-cell lines were maintained in RPMI. All MDA-cell lines were maintained in DMEM. ZR-75I cells were maintained in RPMI. SKBR3 cells were maintained in DMEM. MCF10A cells were maintained in DMEM/F12 medium with the following supplements added: 5% horse serum, 20 ng/mL epidermal growth factor, […] hydrocortisone, 100 ng/mL cholera toxin, 10 μg/mL insulin, 1% Pen/Strep. Primary human mammary epithelial cells (HMECs) were obtained from Lonza Biosciences (Basel, Switzerland) and were maintained according to the specified culture protocols in Clonetics™ Mammary Epithelial Basal Medium (Lonza). […]"}, "[9]": {"system": "ST2 cells", "assay": "Cell viability assay, TNBC stem cells ST2", "assay_type": "cell-based", "conditions": "Homo sapiens, ST-2; 100 nM; 48 hours", "protocol": "as §1\nST1 and ST2 cells were cultured in Mammary epithelial growth medium (Biowhitakker) (Lonza), with the following supplements: Epidermal growth factor (20 ng/mL) (Sigma), basic fibroblast growth factor (20 ng/mL) (BD Biosciences), Heparin (4 μg/mL) (Sigma), B27 Supplement (Invitrogen), Penicillin/Streptomycin (Omega), Gentamycin (35 μg/mL) (Sigma). Cells were gently passaged with Accutase solution. The isolation and characterization of the ST1 and ST2 lines have been previously described (Strietz et al., 2021)."}}, "data": [{"smiles": "O=c1c2cccc3cccc(c32)c2nc3ccccc3n12", "note": "[Analog 523, 7H-benzimidazo[2,1-a]benzo[de]isoquinolin-7-one]", "values": [{"measurement": "difference between WT and KO cells (cell viability)", "setting": "[1]; 10 μM, AhR WT versus AhR KO", "result": "> 70", "unit": "%"}, {"measurement": "percent inhibition of cell viability at 0.1 µM", "setting": "[1]; Homo sapiens, 0.1 μM, AhR WT MDA-MB-468 cells", "result": "> 50", "unit": "%"}, {"measurement": "IC50", "setting": "[1]; Homo sapiens, MDA-MB-468, 72-hour treatment", "result": 41.2, "unit": "nM"}, {"measurement": "inhibition (cell viability)", "setting": "[1]; at <0.5 μM, 72 hours", "result": "> 50", "unit": "%"}, {"measurement": "concentrations at which cell line was sensitive (viability)", "setting": "[2]", "result": "> 1", "unit": "µM"}, {"measurement": "IC50", "setting": "[3]; Homo sapiens, HCC70, 72-hour treatment", "result": 153, "unit": "nM"}, {"measurement": "inhibition (cell viability)", "setting": "[3]; at <0.5 μM, 72 hours", "result": "> 50", "unit": "%"}, {"measurement": "LD50", "setting": "[4]", "result": 660, "unit": "mg/kg"}, {"measurement": "BIK mRNA induction", "setting": "[5]", "result": "~1.5", "unit": "fold"}, {"measurement": "BMF mRNA induction", "setting": "[5]", "result": "4-5 fold"}, {"measurement": "PMA1P1 mRNA induction", "setting": "[5]", "result": "~1.5", "unit": "fold"}, {"measurement": "IER3 mRNA increase", "setting": "[5]; 12 hours", "result": "greater than 6 fold"}, {"measurement": "OSGIN1 mRNA increase", "setting": "[5]; 12 hours", "result": "> 4", "unit": "fold"}, {"measurement": "IC50", "setting": "[6]; Homo sapiens, HCC1187, 72-hour treatment", "result": 81.7, "unit": "nM"}, {"measurement": "inhibition (cell viability)", "setting": "[6]; at <0.5 μM, 72 hours", "result": "> 50", "unit": "%"}, {"measurement": "receptor activation (XRE reporter)", "setting": "[7]; 100 μM", "result": "~2", "unit": "fold"}, {"measurement": "maximal reporter induction", "setting": "[7]; approximately 100 nM", "result": "10-12 fold"}, {"measurement": "inhibition of cell viability in normal mammary epithelial cells", "setting": "[8]; 10 μM", "result": "~20", "unit": "%"}, {"measurement": "cytotoxicity in normal mammary epithelial cells", "setting": "[8]; 0.01-10 μM", "result": "did not induce any cytotoxicity"}, {"measurement": "inhibition of cell viability at 0.1 µM", "setting": "[9]", "result": "> 50", "unit": "%"}]}]}
